Legend:
Akt = assay: Western blot of phospho-Akt and Merlin in MCF10AT cells treated with OPN and Akt inhibitor IV; format: cell-based, human; settings: FIG. 4B
From the text: (§1) Western Blotting Analysis—Immunoblotting was done with anti-Merlin (Santa Cruz Biotech, Santa Cruz, Calif.), phospho-Ser473-Akt (Cell Signaling, Danvers, MAT), total Akt (Cell Signaling), anti-mouse HA (Santa Cruz), antiphospho-Ser315 Merlin, and anti-GAPDH (Cell Signaling). Anti-rabbit or anti-mouse HRP conjugated secondary antibody was used for detection and blots were developed with SuperSignal substrate (Pierce, Rockford, Ill.) and exposed using a Fuji LAS3000 imager.
(§2) Transfection and Drug Treatment—Cells were transfected with empty vector, Merlin (WT; wild-type) or T230A S315A Merlin mutant and treated with clasto-Lactacystin β-Lactone (Sigma, St. Louis, Mo.) for 2 hours. Recombinant OPN (100 ng/mL) (R&D Systems, Minneapolis, Minn.) was added and cells were lysed after 6 hours. Where indicated, cells were first treated with Akt inhibitor IV (Calbiochem) in serum free media for 30 min followed by 100 ng/mL human rOPN for 24 hours.
OPN interacts with a variety of cell surface receptors including CD44 and multiple integrins to activate signaling via the Akt pathway (31,38,39). […] The levels of total Akt remain unaltered. MCF10AT cells were also treated with Akt inhibitor IV in addition to OPN. […] Phosphorylation of Merlin via Akt targets it for degradation by the proteasome (15,40,41).

Merlin [1] = assay: Immunoprecipitation of Merlin and anti-HA blot for ubiquitination in SUM159 cells transfected with HA-ubiquitin and Merlin; format: cell-based, human; settings: SUM159 cells constitutively expressing Merlin, OPN 100 ng/ml, Lactacystin 10 μM, FIG. 4D
Protocol: (§3) Immunoprecipitation—Cells were transfected with pcDNA3.1 HA-ubiquitin alone or in combination with pIRES2-myc-Merlin and incubated for 24 hrs. Cells were treated with 10 μM Lactacystin, 100 ng/ml OPN and 10 μM AKT inhibitor IV for 12 hrs and lysed in NP-40 buffer. The lysate was immunoprecipitated with anti-Merlin antibody and the immunoprecipitate was assessed by immunoblotting.
To assess the role of activated Akt induced by OPN, cells were co-treated with an Akt inhibitor. SUM159 cells were transfected with HA-ubiquitin and Merlin and treated with OPN (100 ng/ml), Lactacystin (10 μM) and Akt inhibitor IV. Cell lysate (1 mg) harvested in NP40 buffer was immunoprecipitated for Merlin. The immunoprecipitate was immunoblotted with anti-HA antibody. […] Merlin ubiquitination was enhanced when co-treated with OPN and was abolished in the presence of Akt inhibitor re-affirming the role of Akt downstream of OPN in modulating the stability of Merlin (FIG. 4D).

Merlin [2] = assay: Immunoprecipitation of endogenous Merlin and anti-HA blot for ubiquitination in MCF10AT cells transfected with HA-ubiquitin; format: cell-based, human
Protocol: as §3
To examine if OPN can induce ubiquitination of endogenous Merlin leading to its proteasomal degradation, MCF10AT cells were transfected with a HA-ubiquitin expressing construct. MCF10AT cells were transfected with HA-ubiquitin and treated with OPN, Lactacystin and Akt inhibitor IV. Cell lysate (2 mg) harvested in NP40 buffer was immunoprecipitated overnight for endogenous Merlin. The immunoprecipitate was immunoblotted with anti-HA antibody. Merlin and GAPDH levels from the cell lysates were inputs for the experiment.

Merlin [3] = assay: Western blot of phosphorylated Merlin (Serine 315) in SUM159 cells transfected with Merlin and treated with OPN; format: cell-based, human; settings: SUM159 cells transfected with Merlin, treated with OPN, FIG. 5A
From the text: as §1
Lysate from SUM159 cells transfected with Merlin and treated with OPN was probed for total Merlin and phosphorylated Merlin (Serine 315). GAPDH was used as a loading control. […] Phosphorylation of Merlin at this residue has been reported to target it for proteasome-mediated degradation (15,40). In particular, […] of Serine 315 and Threonine 230 makes Merlin refractory to OPN. SUM159 cells were transfected with Merlin (WT) or the T230A/S315A Merlin mutant and treated with OPN and Lactacystin. Cell lysates were probed for total Merlin. GAPDH was used as a loading control. Mutant Merlin (T230A S315A) is not degraded in response to OPN, whereas wild-type Merlin is degraded by OPN. […] It was further determined that while OPN is able to induce degradation of Merlin, the Merlin mutant T230A S315A (that cannot be phosphorylated by Akt) is resistant to the effects of OPN (FIG. 5B). […]

Merlin [4] = assay: Western blot of Merlin protein levels in SUM159 cells transfected with Merlin cDNA and treated with recombinant OPN and Lactacystin; format: cell-based, human; settings: SUM159 cells transfected with Merlin cDNA, recombinant OPN 100 ng/mL, FIG. 4A
From the text: as §1, §2
Akt signaling initiated downstream of OPN may regulate Merlin. To examine the effects of OPN on the post-translational regulation of Merlin, specifically the stability of Merlin protein, SUM159 breast cancer cells were transfected with Merlin cDNA and treated with recombinant OPN.

Merlin [5] = assay: Western blot of Merlin in MDA-MB-435 cells treated with Lactacystin and wortmannin; format: cell-based; settings: combined treatment Lactacystin 10-25 μM and wortmannin 100 nM, FIG. 4E
Protocol: FIG. 4 depicts OPN targeting Merlin for Akt-mediated proteasomal degradation. FIG. 4A is a Western blot of SUM159 cells transfected with Merlin and treated with OPN and Lactacystin. […] The smear represents ubiquitinated Merlin. FIG. 4D is a Western blot of SUM159 transfected with HA-ubiquitin and Merlin and treated with OPN (100 ng/ml), Lactacystin (10 μM) and Akt inhibitor IV. FIG. 4E is a Western blot of MDA-MB-435 cells treated with the PI-3-kinase inhibitor, wortmannin and Lactacystin. Cells were pre-treated with Wortmannin (100 nM) for 1 hr followed by Lactacystin for 4.5 hours.
The converse was seen when MDAMB-435 cells were treated with the proteasome inhibitor, Lactacystin (10-25 μM) and the PI-3-kinase inhibitor, wortmannin (100 nM). […] Silencing the expression of OPN reduced the overall levels of ubiquitinated Merlin; in combination with Akt inhibitor and Lactacystin, abrogating OPN expression caused a notable decrease in the ubiquitinated Merlin (FIG. 4F).

| Compound | levels of Akt phosphorylation (Akt; Akt inhibitor IV in addition to OPN) | levels of Merlin (Akt; Akt inhibitor IV in the presence of OPN) | Merlin ubiquitination (Merlin [1]) | ubiquitination of endogenous Merlin (Merlin [2]; co-treatment with Akt inhibitor in the presence of OPN) | Akt activation (phosphorylation of Akt to phospho-Akt) (Akt; recombinant OPN alone) | levels of Merlin (Akt; recombinant OPN alone) | phosphorylation of Merlin at Ser315 (Merlin [3]) | protein levels of Merlin (Merlin [4]) | ubiquitination of endogenous Merlin (smear) (Merlin [2]; MCF10AT cells transfected with HA-ubiquitin, FIG. 4C) | Merlin expression (Merlin [5]) |
| --- | --- | --- | --- | --- | --- | --- | --- | --- | --- | --- |
| Akt inhibitor IV | decreased | restored | abolished | abolished |  |  |  |  |  |  |
| OPN: Recombinant OPN (R&D Systems), human rOPN; secreted phosphoglycoprotein osteopontin |  |  | enhanced |  | activated Akt | decrease in the levels of Merlin | phosphorylation of Merlin at the Ser315 position | decrease in the protein levels of Merlin | some ubiquitination |  |
| CC(=O)N[C@@H](CSC(=O)[C@]1([C@@H](O)C(C)C)NC(=O)[C@H](C)[C@@H]1O)C(=O)O |  |  |  |  |  |  |  |  |  | restored Merlin expression |

— US20130137753A1, “METHODS AND COMPOSITIONS FOR THE DIAGNOSIS AND TREATMENT OF BREAST CANCER” (UNIVERSITY OF SOUTH ALABAMA, priority 2010, published 2013)
